Entries after “also recorded” stand apart in the source; their conditions may differ.
Experiments:
[1] = tested on: recurrent laryngeal nerve (RLN), brachial plexus (BP) and sciatic nerve (SN) of Yorkshire pigs; assay: Nerve targeting in large animals, intraoperative FLARE imaging; type: in vivo, pig; conditions: iv
Procedure: 20 μmol (0.17 mg/kg) of Oxazine 4 was injected intravenously into 35 kg Yorkshire pigs, and the SBR of nerves to the specified surrounding tissue was measured at different time points (T=0, 15, 30, 60, 120, 180, and 240 min). B) Real-time intraoperative fluorescence images of RLN (top), BP (middle), and SN (bottom) acquired at different time points (T=0, 15, 30, 60, 120, 180, and 240 min). Ad=adipose tissue; Mu=muscle; TEG=tracheoesophageal groove; Th=thyroid; Tr=trachea. Scale bars=1 cm. Fluorescence images have identical exposure times (500 msec) and normalizations. C) Fluorescence microscopic images of cryosectioned RLN, BP, and SN. Samples were obtained after injecting 20 μmol of Oxazine 4 into Yorkshire pigs 4 h prior to resection. Shown are representative images (N=5) of H&E (left) and NIR fluorescence (right) images. Scale bars=[…]. All NIR fluorescence images have identical exposure times and normalizations.
Animals were housed in an AAALAC-certified facility. Animal studies were performed under the supervision of Beth Israel Deaconess Medical Center's Institutional Animal Care and Use Committee (IACUC) in accordance with approved institutional protocols (#101-2011 for rodents and #046-2010 for pigs). […] Following anesthesia, electrocardiogram, heart rate, pulse oximetry, and body temperature were monitored throughout surgery.
Initial in vivo screening occurred in rats based on our previous study of BMB (Supplementary Methods) (25). […] The fluorescence signal in nervous tissues and signal-to-background ratio (SBR) compared to neighboring muscle (Mu) were obtained over the period of imaging. […]
The fluorescence intensity (FI) and background (BG) intensity of a region of interest (ROI) over each nerve/tissue were calculated and quantified using custom FLARE^a software. The FI of the RLN, BP, and SN at the optimal dose and time point were quantified to measure tissue-specific targeting. […]

[2] = tested on: brachial plexus (BP) and sciatic nerves (SN) of CD-1 mice; assay: Kinetics and dose-response of nerve targeting in small animals; type: in vivo, mouse
Procedure: 100 nmol (1.6 mg/kg) of Oxazine was injected intravenously into CD-1 mice, and SBR (BP/Mu) and SBR (SN/Mu) were measured at different time points (T=0, 1, 4, 6, 12, and 24 h). Arrowheads indicate fluorescence signals in nerve bundles. SG=salivary glands; Mu=muscle. Scale bars=1 cm. All NIR fluorescence images have identical exposure times (500 msec) and normalizations. B) Dose-response curve of SBR (mean±SEM) for BP and SN. 0, 50, 100, 200, and 400 nmol of Oxazine 4 were injected intravenously into CD-1 mice, and SBR (BP/Mu) and SBR (SN/Mu) were measured at 4 h post-injection. Arrowheads indicate fluorescence signals in nerve bundles. SG=salivary glands; Mu=muscle. Scale bars=1 cm. All NIR fluorescence images have identical exposure times (500 msec) and normalizations.
(§1) Initial in vivo screening occurred in rats based on our previous study of BMB (Supplementary Methods) (25). For kinetic and dose-response studies, 50-400 nmol (0.8-6.3 mg/kg) of Oxazine 4 was injected intravenously into mice and measurements taken over 24 h. Control images were acquired prior to injecting NIR fluorophores. The fluorescence signal in nervous tissues and signal-to-background ratio (SBR) compared to neighboring muscle (Mu) were obtained over the period of imaging. For the large animal study, the optimal dose found in mice (200-400 nmol per mouse) was used in pigs by scaling to body surface area (29, 30).
The fluorescence intensity (FI) and background (BG) intensity of a region of interest (ROI) over each nerve/tissue were calculated and quantified using custom FLARE^a software. The FI of the RLN, BP, and SN at the optimal dose and time point were quantified to measure tissue-specific targeting. Adjacent tissues such as trachea (Tr), thyroid (Th), tracheoesophageal groove (TEG), muscle (Mu), and adipose tissue (Ad) were used as background to calculate the SBR of RLN, BP, and SN in pigs. Statistical analysis was carried out using a one-way ANOVA followed by Tukey's multiple comparisons test. Results were presented as mean±S.D. and curve fitting was performed using Prism version 4.0a software (GraphPad, San Diego, Calif.).

[3] = tested on: rat brachial plexus and sciatic nerves; assay: In vivo nerve-specificity screening with FLARE imaging
Text: The dual-NIR channel FLARE^a imaging system has been described in detail previously (26-28). In this study, a 670 nm excitation was used at a fluence rate of 4 mW/cm^2, with white light (400-650 nm) at 40,000 1×. Color and NIR fluorescence images were acquired simultaneously with custom software at rates up to 15 Hz over a 15 cm diameter field of view. A pseudo-colored lime green was used for NIR fluorescence in the color-NIR merged images. The imaging system was positioned at a distance of 18 inches from the surgical field.
as §1
Sprague-Dawley (SD) male rats weighing 250-300 g were purchased from Charles River Laboratories (Wilmington, Mass.). BMB, Oxazine 1, Oxazine 4, Oxazine 170, Oxazine 750, and Rhodamine 800 were initially screened to investigate nerve specificity in rats. For the initial screening, we administered a relatively high dose (2 mg/kg; 1 μmol) of each fluorophore intravenously. 4 h after injection, brachial plexus (BP) and sciatic nerve (SN) were imaged using the intraoperative FLARE^a system for in vivo nerve-specific fluorophores screening.

[4] = comparison of structures in discussion

Question: What does the source list for `CC/N=c1/cc2oc3cc(NCC)c(C)cc3nc-2cc1C` [Oxazine 4]?
Answer: signal retention in BP and SN post injection [1]: up to 3 h; time of maximal SBR, BP and SN [1]: 1 h; time of maximal SBR, RLN ([1]; RLN vs surrounding tissue): 3 h; time of highest SBR post-intravenous injection ([2]; 100 nmol (1.6 mg/kg) iv): 4 h; highest SBR (nerve/muscle) ([2]; 100 nmol (1.6 mg/kg) iv, 4 h post-injection, BP and SN): ≈ 3.0; SBR at 1 h post-injection ([2]; 100 nmol iv, 1 h): low; fluorescence signal in nervous tissues at 24 h post-injection ([2]; 100 nmol iv, 24 h): decayed at this time point to pre-injection levels; dose dependence of fluorescence signals in BP and SN ([2]; 50-400 nmol per mouse (0.8-6.3 mg/kg), 4 h post-injection): proportional to the injected dose; optimal dose ([2]; iv, 4 h post-injection): 200 nmol; nerve-specific fluorescence signal in vivo ([3]; SD rats, 2 mg/kg (1 μmol) iv, 4 h after injection, brachial plexus and sciatic nerve, 2 mg/kg): highest nerve-specific fluorescence signal; also recorded: higher nerve-specific fluorescence signal; background (muscle and adipose tissue) fluorescence signal in vivo ([3]; SD rats, 2 mg/kg (1 μmol) iv, 4 h after injection, 2 mg/kg): lowest background; also recorded: lower background; adipose signal (discussion summary) [3, 4]: moderate adipose; nerve signal (discussion summary) [3, 4]: high nerve signal

From patent US11001562B2, “Near-infrared fluorescent nerve contrast agents and methods of use thereof” (Beth Israel Deaconess Medical Center, priority 2013, dated 2021)
